The target of data set [1] is Mitogen-activated protein kinase 14 (Homo sapiens) (UniProt Q16539). Briefly: Inhibition of human p38alpha at 10 uM by ADP-Glo kinase assay.
Data set [2] deals with Death-associated protein kinase 1 (Homo sapiens) (UniProt P53355). Briefly: Inhibition of human DAPK1 at 10 uM by ADP-Glo kinase assay.
Data set [3] concerns the target T1, Aurora kinase A (Homo sapiens) (UniProt O14965).
T1 sequence (whole entry): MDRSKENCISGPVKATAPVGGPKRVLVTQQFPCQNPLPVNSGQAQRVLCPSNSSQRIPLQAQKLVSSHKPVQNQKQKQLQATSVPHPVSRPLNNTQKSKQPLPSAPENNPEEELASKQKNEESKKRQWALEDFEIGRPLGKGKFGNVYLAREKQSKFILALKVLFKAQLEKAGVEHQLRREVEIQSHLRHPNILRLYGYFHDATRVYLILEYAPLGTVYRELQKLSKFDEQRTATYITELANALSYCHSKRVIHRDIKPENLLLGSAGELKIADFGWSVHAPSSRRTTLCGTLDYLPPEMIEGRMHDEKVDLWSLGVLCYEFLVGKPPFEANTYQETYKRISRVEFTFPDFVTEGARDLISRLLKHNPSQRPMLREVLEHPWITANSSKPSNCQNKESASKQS
Briefly: Inhibition of human Aurora A at 10 uM by ADP-Glo kinase assay.

Data set [4] deals with RAW264.7. Put plainly: Cytotoxicity against mouse RAW264.7 cells assessed a reduction in cell viability incubated for 24 hrs in absence of 10% FBS by MTT assay. The format is cell-based. The note with it: raw264.7, 24 h.
Data set [5] deals with T2, Calmodulin-sensitive adenylate cyclase (Bacillus anthracis, UniProt P40136).
T2 sequence (P40136 whole entry): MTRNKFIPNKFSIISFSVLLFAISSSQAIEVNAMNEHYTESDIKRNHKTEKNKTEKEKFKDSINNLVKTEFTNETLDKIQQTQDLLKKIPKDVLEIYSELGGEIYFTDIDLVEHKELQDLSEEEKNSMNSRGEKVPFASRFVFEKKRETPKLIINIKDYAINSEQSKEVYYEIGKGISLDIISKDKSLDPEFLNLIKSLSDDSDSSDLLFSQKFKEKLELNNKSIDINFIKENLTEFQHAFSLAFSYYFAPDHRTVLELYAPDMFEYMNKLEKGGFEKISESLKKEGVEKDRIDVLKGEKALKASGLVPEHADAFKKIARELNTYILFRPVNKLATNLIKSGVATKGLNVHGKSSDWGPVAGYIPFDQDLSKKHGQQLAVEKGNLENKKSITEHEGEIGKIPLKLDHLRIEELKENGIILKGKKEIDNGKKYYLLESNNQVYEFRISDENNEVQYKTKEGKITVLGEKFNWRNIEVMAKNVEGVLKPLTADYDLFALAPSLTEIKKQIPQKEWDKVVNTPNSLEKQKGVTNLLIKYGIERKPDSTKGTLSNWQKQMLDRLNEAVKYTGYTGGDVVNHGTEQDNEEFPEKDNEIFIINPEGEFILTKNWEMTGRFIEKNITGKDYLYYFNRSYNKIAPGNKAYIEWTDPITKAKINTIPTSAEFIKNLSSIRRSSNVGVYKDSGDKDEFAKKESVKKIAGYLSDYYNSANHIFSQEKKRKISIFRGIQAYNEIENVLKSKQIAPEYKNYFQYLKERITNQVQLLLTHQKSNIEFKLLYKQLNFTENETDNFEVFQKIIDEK
Put plainly: Inactivation of Bacillus anthracis edema factor in presence of CaM incubated for 10 to 240 mins by EnzChek pyrophosphate assay.

The target in data set [6] is T3, Inhibitor of nuclear factor kappa-B kinase subunit beta (Homo sapiens) (UniProt O14920).
T3 sequence (whole entry): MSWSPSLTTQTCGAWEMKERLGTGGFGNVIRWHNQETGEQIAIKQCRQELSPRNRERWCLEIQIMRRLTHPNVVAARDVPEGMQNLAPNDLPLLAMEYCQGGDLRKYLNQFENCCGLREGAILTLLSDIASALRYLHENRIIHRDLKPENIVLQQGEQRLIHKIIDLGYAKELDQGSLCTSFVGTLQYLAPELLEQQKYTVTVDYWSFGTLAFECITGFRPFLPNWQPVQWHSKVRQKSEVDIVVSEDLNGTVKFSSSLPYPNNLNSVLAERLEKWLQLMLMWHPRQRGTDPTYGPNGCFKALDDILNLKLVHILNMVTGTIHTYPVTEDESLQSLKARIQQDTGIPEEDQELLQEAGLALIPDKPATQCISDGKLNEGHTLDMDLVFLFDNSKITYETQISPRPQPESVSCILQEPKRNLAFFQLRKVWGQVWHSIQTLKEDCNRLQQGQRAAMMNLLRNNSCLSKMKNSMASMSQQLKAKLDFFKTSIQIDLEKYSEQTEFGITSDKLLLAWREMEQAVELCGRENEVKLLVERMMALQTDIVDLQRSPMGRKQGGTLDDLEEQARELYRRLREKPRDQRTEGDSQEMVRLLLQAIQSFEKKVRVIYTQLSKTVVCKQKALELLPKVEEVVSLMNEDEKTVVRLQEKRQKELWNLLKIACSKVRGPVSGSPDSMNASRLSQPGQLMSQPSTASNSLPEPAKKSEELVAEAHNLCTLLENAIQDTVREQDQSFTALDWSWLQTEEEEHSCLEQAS
Briefly: Inhibition of human IKKbeta at 10 uM by ADP-Glo kinase assay.

For data set [7], the target named is T4, Calmodulin-sensitive adenylate cyclase (Bacillus anthracis) (UniProt P40136).
T4 sequence (whole entry): T2 sequence (P40136 whole entry)
Briefly: Inactivation of Bacillus anthracis edema factor assessed as inactivation rate constant in presence of CaM incubated for 10 to 240 mins by EnzChek pyrophosphate assay.

Data set [8] deals with RAC-alpha serine/threonine-protein kinase (Homo sapiens) (UniProt P31749). Put plainly: Inhibition of human AKT1 at 10 uM by ADP-Glo kinase assay.
Sequence of RAC-alpha serine/threonine-protein kinase (Homo sapiens) (P31749 whole entry): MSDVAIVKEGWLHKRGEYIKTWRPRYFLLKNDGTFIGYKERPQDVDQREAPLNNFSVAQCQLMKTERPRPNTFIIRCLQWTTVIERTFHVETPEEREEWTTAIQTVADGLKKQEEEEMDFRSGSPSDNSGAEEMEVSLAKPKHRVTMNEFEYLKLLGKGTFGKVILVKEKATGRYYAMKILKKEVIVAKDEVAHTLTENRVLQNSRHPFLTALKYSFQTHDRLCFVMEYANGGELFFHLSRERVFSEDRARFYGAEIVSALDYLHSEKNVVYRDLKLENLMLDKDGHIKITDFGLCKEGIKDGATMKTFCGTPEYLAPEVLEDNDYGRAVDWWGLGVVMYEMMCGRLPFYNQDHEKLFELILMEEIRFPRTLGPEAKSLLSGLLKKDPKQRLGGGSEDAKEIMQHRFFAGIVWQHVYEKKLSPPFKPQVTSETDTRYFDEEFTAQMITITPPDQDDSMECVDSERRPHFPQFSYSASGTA
Data set [9] addresses T4, Calmodulin-sensitive adenylate cyclase (Bacillus anthracis). Briefly: Inactivation of Bacillus anthracis edema factor assessed as Kinact/Ki ratio in presence of CaM incubated for 10 to 240 mins by EnzChek pyrophosphate assay.
Data set [10] deals with Casein kinase I isoform gamma-1 (Homo sapiens) (UniProt Q9HCP0). Briefly: Inhibition of human CK1g1 at 10 uM by ADP-Glo kinase assay.
Sequence of Casein kinase I isoform gamma-1 (Homo sapiens) (Q9HCP0 whole entry, looked up, canonical isoform): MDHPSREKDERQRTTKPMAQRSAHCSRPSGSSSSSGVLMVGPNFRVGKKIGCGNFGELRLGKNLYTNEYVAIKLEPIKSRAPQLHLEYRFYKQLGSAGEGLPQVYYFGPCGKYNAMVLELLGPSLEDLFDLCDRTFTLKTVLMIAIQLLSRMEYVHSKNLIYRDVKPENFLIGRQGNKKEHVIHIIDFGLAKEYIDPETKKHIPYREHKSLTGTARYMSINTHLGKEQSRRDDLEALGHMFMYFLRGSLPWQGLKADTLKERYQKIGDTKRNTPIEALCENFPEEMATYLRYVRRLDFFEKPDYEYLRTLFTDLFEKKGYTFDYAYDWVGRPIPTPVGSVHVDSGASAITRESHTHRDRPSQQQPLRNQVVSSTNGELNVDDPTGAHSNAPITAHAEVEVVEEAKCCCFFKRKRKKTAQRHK
In data set [11] the target is Serine/threonine-protein kinase PAK 1 (Homo sapiens) (UniProt Q13153). Put plainly: Inhibition of human PAK1 at 10 uM by ADP-Glo kinase assay.
Sequence of Serine/threonine-protein kinase PAK 1 (Homo sapiens) (Q13153 whole entry): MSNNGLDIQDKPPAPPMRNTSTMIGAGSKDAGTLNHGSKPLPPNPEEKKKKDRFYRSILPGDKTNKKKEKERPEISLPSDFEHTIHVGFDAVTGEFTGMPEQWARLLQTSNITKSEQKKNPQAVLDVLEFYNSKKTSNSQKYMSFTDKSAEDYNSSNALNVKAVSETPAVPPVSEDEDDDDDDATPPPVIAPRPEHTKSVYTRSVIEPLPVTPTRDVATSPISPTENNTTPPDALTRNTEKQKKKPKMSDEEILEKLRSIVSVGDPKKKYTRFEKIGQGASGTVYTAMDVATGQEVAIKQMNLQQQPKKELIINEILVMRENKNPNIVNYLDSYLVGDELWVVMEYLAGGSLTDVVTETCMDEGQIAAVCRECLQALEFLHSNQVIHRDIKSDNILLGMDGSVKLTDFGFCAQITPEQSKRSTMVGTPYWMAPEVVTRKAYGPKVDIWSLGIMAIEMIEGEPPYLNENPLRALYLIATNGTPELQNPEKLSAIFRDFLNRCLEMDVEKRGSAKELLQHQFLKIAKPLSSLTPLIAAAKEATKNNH
In data set [12] the target is Misshapen-like kinase 1 (Homo sapiens) (UniProt Q8N4C8). Briefly: Inhibition of human MINK at 10 uM by ADP-Glo kinase assay.
Sequence of Misshapen-like kinase 1 (Homo sapiens) (Q8N4C8 whole entry, looked up): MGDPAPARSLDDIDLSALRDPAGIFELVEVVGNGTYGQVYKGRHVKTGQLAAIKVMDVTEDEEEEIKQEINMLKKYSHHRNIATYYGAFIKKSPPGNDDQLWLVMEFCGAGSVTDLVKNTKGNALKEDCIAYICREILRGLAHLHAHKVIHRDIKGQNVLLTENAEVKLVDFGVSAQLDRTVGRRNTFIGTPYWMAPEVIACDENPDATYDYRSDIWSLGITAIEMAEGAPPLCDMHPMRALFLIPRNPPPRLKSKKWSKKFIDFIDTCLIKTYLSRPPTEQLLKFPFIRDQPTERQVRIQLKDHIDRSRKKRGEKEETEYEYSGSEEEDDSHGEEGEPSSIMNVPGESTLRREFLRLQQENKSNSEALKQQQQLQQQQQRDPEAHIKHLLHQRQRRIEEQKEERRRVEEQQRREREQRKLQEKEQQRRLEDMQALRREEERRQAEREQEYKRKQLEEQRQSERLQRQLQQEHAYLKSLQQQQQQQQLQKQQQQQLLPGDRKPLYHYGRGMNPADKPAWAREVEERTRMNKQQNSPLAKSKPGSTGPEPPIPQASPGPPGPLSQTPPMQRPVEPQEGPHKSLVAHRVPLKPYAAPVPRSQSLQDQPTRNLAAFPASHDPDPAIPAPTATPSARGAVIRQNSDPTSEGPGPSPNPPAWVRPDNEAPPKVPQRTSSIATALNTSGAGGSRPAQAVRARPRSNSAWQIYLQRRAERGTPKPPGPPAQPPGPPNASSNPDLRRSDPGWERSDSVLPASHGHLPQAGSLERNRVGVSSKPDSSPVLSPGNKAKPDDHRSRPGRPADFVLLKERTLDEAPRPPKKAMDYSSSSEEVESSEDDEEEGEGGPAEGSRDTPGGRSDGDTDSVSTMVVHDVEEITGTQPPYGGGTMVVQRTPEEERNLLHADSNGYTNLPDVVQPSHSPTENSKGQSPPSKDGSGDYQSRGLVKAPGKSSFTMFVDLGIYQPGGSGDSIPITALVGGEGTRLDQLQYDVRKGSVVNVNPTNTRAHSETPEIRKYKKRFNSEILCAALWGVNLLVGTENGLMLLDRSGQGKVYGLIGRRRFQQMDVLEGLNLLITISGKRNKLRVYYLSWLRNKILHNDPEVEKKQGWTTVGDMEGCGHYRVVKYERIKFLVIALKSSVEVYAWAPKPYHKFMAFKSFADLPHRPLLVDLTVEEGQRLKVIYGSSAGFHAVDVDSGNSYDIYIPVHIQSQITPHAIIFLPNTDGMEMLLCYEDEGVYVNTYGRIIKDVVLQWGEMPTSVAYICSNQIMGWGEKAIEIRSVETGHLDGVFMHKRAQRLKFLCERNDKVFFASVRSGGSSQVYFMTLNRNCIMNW
Data set [13] has as its target Interleukin-1 receptor-associated kinase 1 (Homo sapiens) (UniProt P51617). Briefly: Inhibition of human IRAK at 10 uM by ADP-Glo kinase assay.
Data set [14] is described as follows: Cytotoxicity against mouse RAW264.7 cells assessed a reduction in cell viability incubated for 24 hrs in presence of 10% FBS by MTT assay. The note with it: RAW264.7 cells. The class given is cell-based.

A value given as a limit tells only on which side of the number the result lay.

Two compounds from ChEMBL document CHEMBL4177722, “Small molecule inhibitors of anthrax edema factor” (Bioorg Med Chem Lett, 2018) can be followed below.

Sequence of Death-associated protein kinase 1 (Homo sapiens) (P53355 whole entry, looked up): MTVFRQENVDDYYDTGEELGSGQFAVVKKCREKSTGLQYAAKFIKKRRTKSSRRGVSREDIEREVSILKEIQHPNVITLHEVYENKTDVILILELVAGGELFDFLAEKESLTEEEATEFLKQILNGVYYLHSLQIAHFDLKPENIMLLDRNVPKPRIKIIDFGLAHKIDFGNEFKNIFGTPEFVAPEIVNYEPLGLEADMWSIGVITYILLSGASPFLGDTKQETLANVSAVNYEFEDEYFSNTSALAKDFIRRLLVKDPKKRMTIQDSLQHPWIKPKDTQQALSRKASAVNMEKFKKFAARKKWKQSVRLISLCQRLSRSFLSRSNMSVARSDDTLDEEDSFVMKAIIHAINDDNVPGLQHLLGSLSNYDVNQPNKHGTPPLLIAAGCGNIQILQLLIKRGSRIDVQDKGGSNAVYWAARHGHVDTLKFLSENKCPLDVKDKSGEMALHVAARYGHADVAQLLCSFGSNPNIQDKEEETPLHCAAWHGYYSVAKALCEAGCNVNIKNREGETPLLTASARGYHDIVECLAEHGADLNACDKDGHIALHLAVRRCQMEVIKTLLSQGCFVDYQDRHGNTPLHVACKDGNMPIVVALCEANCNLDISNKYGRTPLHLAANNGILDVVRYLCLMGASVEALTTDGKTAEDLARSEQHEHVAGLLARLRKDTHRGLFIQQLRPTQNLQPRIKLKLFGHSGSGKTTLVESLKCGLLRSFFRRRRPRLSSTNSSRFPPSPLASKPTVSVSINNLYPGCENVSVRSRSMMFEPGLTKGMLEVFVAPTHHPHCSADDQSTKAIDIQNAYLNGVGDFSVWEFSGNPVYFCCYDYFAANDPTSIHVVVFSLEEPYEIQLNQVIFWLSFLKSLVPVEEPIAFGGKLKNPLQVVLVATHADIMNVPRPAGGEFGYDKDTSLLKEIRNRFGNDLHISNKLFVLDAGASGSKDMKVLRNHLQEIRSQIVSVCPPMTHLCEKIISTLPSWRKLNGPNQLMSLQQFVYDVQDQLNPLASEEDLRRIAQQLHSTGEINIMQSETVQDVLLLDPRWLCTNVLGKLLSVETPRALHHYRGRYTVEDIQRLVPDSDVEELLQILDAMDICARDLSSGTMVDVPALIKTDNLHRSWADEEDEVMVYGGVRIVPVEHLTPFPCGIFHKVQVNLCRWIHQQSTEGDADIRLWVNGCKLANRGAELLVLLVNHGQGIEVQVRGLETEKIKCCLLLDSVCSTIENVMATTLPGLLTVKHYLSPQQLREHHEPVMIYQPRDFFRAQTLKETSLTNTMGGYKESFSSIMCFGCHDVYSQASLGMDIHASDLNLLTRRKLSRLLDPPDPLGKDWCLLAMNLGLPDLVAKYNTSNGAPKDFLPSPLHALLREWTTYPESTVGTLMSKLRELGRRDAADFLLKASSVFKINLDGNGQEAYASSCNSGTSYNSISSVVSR
Sequence of Interleukin-1 receptor-associated kinase 1 (Homo sapiens) (P51617 whole entry, looked up): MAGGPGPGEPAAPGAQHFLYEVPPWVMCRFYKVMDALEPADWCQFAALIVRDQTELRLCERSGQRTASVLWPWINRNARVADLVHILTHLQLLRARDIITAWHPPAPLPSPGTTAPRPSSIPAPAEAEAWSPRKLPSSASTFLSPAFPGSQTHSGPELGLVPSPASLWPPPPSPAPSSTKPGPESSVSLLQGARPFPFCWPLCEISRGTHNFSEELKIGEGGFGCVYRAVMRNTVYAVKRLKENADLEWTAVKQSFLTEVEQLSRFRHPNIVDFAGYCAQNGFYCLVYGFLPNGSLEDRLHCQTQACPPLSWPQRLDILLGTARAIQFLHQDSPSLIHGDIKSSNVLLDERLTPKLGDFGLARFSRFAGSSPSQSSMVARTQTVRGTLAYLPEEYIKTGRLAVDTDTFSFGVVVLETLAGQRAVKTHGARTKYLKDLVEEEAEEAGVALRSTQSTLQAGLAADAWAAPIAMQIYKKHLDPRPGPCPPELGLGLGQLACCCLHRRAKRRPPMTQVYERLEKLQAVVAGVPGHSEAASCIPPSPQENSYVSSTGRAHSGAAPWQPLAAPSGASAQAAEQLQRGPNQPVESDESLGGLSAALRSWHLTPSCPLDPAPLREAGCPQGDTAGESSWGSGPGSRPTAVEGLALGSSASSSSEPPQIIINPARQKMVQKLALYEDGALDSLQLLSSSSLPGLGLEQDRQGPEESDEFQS

Turning to `Nc1ncnc2c1ccn2C1CCN(C(=O)c2ccc(S(=O)(=O)F)cc2)CC1`, the inhibition in [1] is 6%; in [2], 4%; in data set [3], 39%; in [6] it was 0%; in [8], 20%; in data set [10], 23%. For the same compound, the inhibition in [11] worked out at 0%; in [12], 5%; in [13] it was 10%. Further, the Activity entry in data set [4] was “Non-Toxic”. For the same compound, the Ki in data set [5] stood at 300 nM. For the same compound, the Kinact in data set [7] is 0.282 min⁻¹. In data set [9], the Ratio is 14200. Besides, in data set [14], the CC50 at 24 h is more than 100000 nM.
Turning to `Cc1nc(N)c2ccn(C3CCN(C(=O)c4ccc(S(=O)(=O)F)cc4)CC3)c2n1`, the inhibition amounted to 2% in data set [1]; 13% in data set [2]; 47% in data set [3]; 0% in [6]; 24% in data set [8]; 16% in [10]. The figures for the inhibition in [11], in [12] and in data set [13] were 0%, 17% and 0%, respectively. In data set [4], the Activity result is “Non-Toxic”. In [5], the Ki worked out at 700 nM. Also, in data set [7], the Kinact came out at 0.129 min⁻¹. Further, in data set [9], the Ratio stood at 3140. Moreover, the CC50 at 24 h in data set [14] is more than 100000 nM.
